Measurements from patent US20240299317A1, “Fenfluramine for Treatment of Conditions Associated with Spreading Depolarization” (ZOGENIX INTERNATIONAL LIMITED, priority 2021, published 2024).

Columns and labels:
[1] = system: spreading depolarization in mouse brain slices; experiment: KCl-induced spreading depolarization threshold in mouse brain slices; format: cell-based; settings: for KCl concentration necessary to initiate spreading depolarization (SD threshold): test compound alone in ACSF bath
Protocol: (§1) In brain slice studies normoxic SD is induced by briefly raising [K^+]o. An ischemic version of SD, the anoxic depolarization (AD), is induced by removing O2/glucose from the aCSF for about 10 min. Intrinsic optical signals (IOSs) represent change in the way tissue scatters light. Light transmittance (LT), essentially unscattered light, is imaged using a charge-coupled device (CCD) to measure second-by-second regional DLT during periods of 1 h or more. The front of the propagating SD or AD event is imaged as an elevated LT, caused by cell swelling. A negative voltage shift, the electrophysiological signature of SD, is simultaneously recorded extracellularly. Normoxic SD is typically the cortical occurrence in migraine, while an anoxic condition is more typical of ischemic attacks and stroke.
(§2) To determine the threshold for evoked spreading depolarization in mouse brain slices, mice (C57Bl6J, P30-50) were deeply anesthetized by ketamine/xylazine mix (i.p. 85 and […], respectively), cardiac perfused with cutting solution (110 mM N-Methyl-D-glucamine, 10 mM glucose, 6 mM magnesium sulfate, 3 mM KCl, 25 mM sodium bicarbonate, 1.25 mM sodium monophosphate, 0.2 mM calcium chloride, and 0.4 mM ascorbic acid equilibrated with 95% O2/5% CO2), and decapitated. The brain was rapidly extracted, cerebellum removed, forebrain hemisected, and 300 μm thick coronal slices were cut on a vibratome.
Slices were first incubated in the cutting solution at 37 C for 10 minutes and then transferred to artificial cerebrospinal fluid (“ACSF”: 126 mM sodium chloride, 10 mM glucose, 1 mM magnesium sulfate, 3 mM KCl, 25 mM sodium bicarbonate, 1.25 mM sodium monophosphate, 2 mM calcium chloride, and 0.4 mM ascorbic acid equilibrated with 95% O2/5% CO2).
(§3) In all in vitro experiments, a pair of slices were then transferred to a recording chamber continuously superfused with ACSF at […] 33-34° C. For pharmacological analysis, slices were pre-incubated in the recording chamber with test compound for at least for 20 minutes. Slow tissue depolarizations (SD) were detected by DC potential shift or imaging of intrinsic optical signals (IOS) in the brain slice. DC potential were recorded using glass pipette electrodes containing ACSF (2-3MO). Signals were amplified with a DC amplifier (MultiClamp 700B), digitized (Digidata 1550B) and analyzed with the Clampfit program ([…]). IOS were detected by acquiring images of brain slices with a CMOS camera (Hamamatsu ORCA). Images were acquired at 0.2-0.5 Hz and analyzed with imageJ software.
First, by incrementally elevating the KCl concentration of bath ACSF every 5 minutes (initial starting concentration of 6 mM, then elevated by +1 mM at 5-minute intervals). The KCl concentration that triggered the first SD was considered as the SD threshold. In experiments using the test drug (fenfluramine), the drug was added to the solution before the KCl challenge.

[2] = cited from earlier work
[3] = system: GABA spontaneous inhibitory postsynaptic currents; experiment: GABA spontaneous inhibitory postsynaptic currents (sIPSCs); format: cell-based; settings: compound alone
[4] = target: Sig1 receptor [Sig1R]/binding immunoglobulin protein (BiP) (Homo sapiens, UniProt Q99720); settings: with PRE-084; cited from earlier work
Sig1 receptor [Sig1R]/binding immunoglobulin protein (BiP), sequence (Q99720 whole entry): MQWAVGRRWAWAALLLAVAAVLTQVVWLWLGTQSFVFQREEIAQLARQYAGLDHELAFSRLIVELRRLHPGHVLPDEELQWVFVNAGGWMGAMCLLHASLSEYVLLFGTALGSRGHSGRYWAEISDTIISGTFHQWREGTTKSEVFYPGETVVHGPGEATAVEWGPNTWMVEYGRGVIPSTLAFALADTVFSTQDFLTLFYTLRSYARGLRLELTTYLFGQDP

[5] = system: Sig1R; settings: with (+)-SKF-10,047; cited from earlier work
[6] = system: spreading depolarization in cortical slices; experiment: Oxygen/glucose deprivation (OGD) model of spreading depolarization in brain slices; format: cell-based, mouse; settings: for time to onset of spreading depolarization: treatment vs non-treatment
Protocol: as §1
as §2, with “vibratome. […]” for “vibratome.”
as §3, with “For pharmacological analysis, slices were pre-incubated in the recording chamber with test compound for at least for 20 minutes.” left out, “software. […]” for “software.”

## CN1CC2c3ccccc3Oc3ccc(Cl)cc3C2C1 (stereo not drawn) [asenapine]
[1]; KCl model, asenapine added to fenfluramine
  effect of multi-5-HT receptor antagonist on protective effects of fenfluramine: did not affect

## COc1ccc2c(c1)[C@]13CCCC[C@@H]1[C@H](C2)N(C)CC3 [dextromethorphan]
[1]; KCl model
  KCl concentration necessary to initiate spreading depolarization (SD threshold): raising the spreading depolarization threshold

## CCNC(C)Cc1cccc(C(F)(F)F)c1 (stereo not drawn) [fenfluramine, 3-trifluoromethyl-N-ethylamphetamine]
[2]; chronic use at doses of 60 to 120 mg, some patients
  cardiac adverse effects with chronic use: cardiac valve abnormalities or pulmonary hypertension
[2]; low dose, Dravet Syndrome and Lennox Gastaut syndrome
  anticonvulsant/antiseizure activity: anticonvulsant/antiseizure activity
[3]
  GABA spontaneous inhibitory postsynaptic currents: increase
[4]
  Sig1R/BiP dissociation induced by the Sig1R agonist PRE-084: potentiated
[5]
  (+)-SKF-10,047-induced increase in the twitch contraction amplitude: potentiated
[1]; KCl model, 5-HT4 antagonist added
  protective effect of fenfluramine with addition of a 5-HT4 antagonist: only slightly diminished
[1]; KCl model
  KCl concentration necessary to initiate spreading depolarization (SD threshold): raising the KCl concentration necessary to initiate spreading depolarization
[1]; fenfluramine with added serotonin
  additivity or synergism on spreading depolarization threshold: lack of additivity or synergism
[1]; with blockade of the GABA receptors
  fenfluramine's effects on spreading depolarization under blockade of the GABA receptors: does not abolish
[6]; 0% oxygen and 0 mM glucose
  time to onset of spreading depolarization: non-significant difference
[6]; 0% oxygen and 2 mM glucose
  time to onset of spreading depolarization: significant increase in time to onset
[6]; anoxic conditions
  effect on SD under anoxic conditions (AD): positive effect

## NCCc1c[nH]c2ccc(O)cc12 [serotonin, 5-hydroxytryptamine]
[3]
  GABA spontaneous inhibitory postsynaptic currents: increase
